This data set has as its system NLuc-UGA PTC. In words: NanoLuc nonsense reporter screen (all-in-one HTC plasmid), TGA/UGA PTC, HEK293 cells. In kind it is cell-based, human. To be noted: for stop codon selectivity (NanoLuc TGA, TAA or TAG reporter): transiently transfected HEK293 cells. An excerpt:
Several different nonsense mutations cause CF, thus underlying roughly 10% of all CF disease. FIG. 7. These cases are concentrated into […] specific genetic lesions: E60X, R75X, G542X, R553X, Q890X, Y1092X, R1158X, R1162X and W1282X. A screen was developed to screen existing human tRNA sequences for modification and tolerance to anti-codon editing. To this end, roughly 144 ACE-tRNAs were candidates to test for those that could be used to promote the repair of the disease causative nonsense codon and the expression of the full-length protein. Specifically, using the scheme described in FIG. 11, tRNA libraries were generated to identify novel tRNA sequences that encode for ACE tRNA with the ability to repair the top CF causative nonsense mutations. Specifically, 10 ng of annealed oligos encoding the ACE-tRNAs were combined with 50 ng of NanoLuc reporter plasmid, 1 μl 10×CutSmart Buffer (NEB), 1 μl T4 ligase (NEB), 10 mM ATP and 1 μl BbsI (NEB) and cycled in a thermocycler as described in FIG. 11. 1 μl of the reaction was transformed into competent E. coli and the transformants were plated on ampicillin agar plates. One transformant was picked per plate was picked, grown in 1 ml of LB under ampicillin selection, miniprepped and sequence verified.
Screening studies were first performed to identify the best ACE-tRNA Candidates from tryptophan and glycine. 125 ng of sequence verified miniprep cDNA of NanoLuc reporter plasmid with ACE-tRNA was transfected into HEK cells using calcium phosphate. HEK cells were plated in 96 well plates at 4×10^4 the day prior. 24 hours after transfection the media was replaced with 20 μl of PBS and 15 μl of NanoGlo reagent (Promega) was added. Plates were read on a SpectraMax i3 (Molecular Devices). Data are of replicates of 3 or greater. FIG. 8.
FIG. 10. An additional modification of the tRNA was made to further enable their function for the purpose of suppression of nonsense codons and the promotion of protein expression. […] To this end, single and double mutations were directly engineered into the t-stem loop of tRNA Trpchr17.trna39—an ACE-tRNA identified with activity for the rescue of tryptophan TGA nonsense codons. Thirty-eight tRNA t-stem variants were thus generated and screened in HEK cells transiently transfected with the nonsense rescue reporter construct shown in FIG. 4. […] This is a generalizable modification, that is, new tRNA sequences identified, by example 1 and 2, can be made better (for their ability to rescue nonsense codons) through further rationale modifications. Such approaches aid in the therapeutic utility of ACE-tRNA directed to tissue types with low abundance target RNA or where tRNA delivery may be limiting.
In order to enable the identification of the nucleotide composition and functional ability to suppress nonsense codons by new types of tRNA, an All-In-One Plasmid With A One Pot Cloning Reaction was invented for High Throughput Cloning FIG. 11. This approach enables the facile investigation of ACE-tRNA activity via luciferase activity in a standard 96 well format. Briefly, synthetic nucleotide sequences encoding for tRNA are ligated into the NanoLuc Reporter plasmid, with an example of the TGA nonsense reporter plasmid variant shown in FIG. 11. […] and TAG (amber) stop codon rescue vectors have been successfully designed and implemented in FIGS. 16-19. The benefits are the approach is that DNA oligos encoding for tRNA libraries can be ligated in the NanoLuc reporter plasmid with the presence of the restriction enzyme and ligase with the reaction pushed to nearly 100% incorporation of tRNA insert (FIG. 11)-thus the ‘one-pot’ designation. The reaction is transformed into E. coli, with the resultant cDNA purified by standard methods. […]

The text below walks through data of patent publication US20230203482A1, “Methods of Rescuing Stop Codons via Genetic Reassignment with ACE-tRNA” (THE WISTAR INSTITUTE OF ANATOMY AND BIOLOGY, priority 2017, published 2023).

On to “Trpchr17.trna39: top performing tryptophan ACE-tRNA UGA suppressor, SEQ ID NO: 48”, for which the Ranking entry (Table 7, Trp TGA) is on record as “#1”. The “stop codon selectivity (NanoLuc TGA, TAA or TAG reporter)” value (listed as ACE-tRNA^Trp) was “Stop codon specificity is maintained”.

B1: Glychr19.trna2: top performing glycine ACE-tRNA UGA suppressor, SEQ ID NO: 53 (nucleic acid)
chain: GCGTTGGTGGTATAGTGGTTAGCATAGCTGCCTTCAAAGCAGTTGACCCGGGTTCGATTCCCGGCCAACGCA
modifications: chemistry not fully specified
As for B1, the Ranking entry (Table 8, Gly TGA) is recorded as “#1”. Under “listed as Glychr19.t2”, the “stop codon selectivity (NanoLuc TGA, TAA or TAG reporter)” value is “selectively suppresses the UGA stop codon”.
